Three compounds from paper PMC11095988, “The Molecular Mechanism of FABP4 Inhibition Effects of GAS and 4-HBA in Gastrodia elata Blume Was Discussed Based on NMR and Molecular Docking” (Journal of Analytical Methods in Chemistry, 2024) can be followed below.

In experiment [1] the target is T1, FABP4 (Homo sapiens, UniProt P15090).
T1 sequence (P15090 2-132): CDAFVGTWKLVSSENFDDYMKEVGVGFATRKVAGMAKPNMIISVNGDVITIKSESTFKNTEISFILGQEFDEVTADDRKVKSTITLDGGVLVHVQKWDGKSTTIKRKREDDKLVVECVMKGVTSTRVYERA
As to the kind of experiment: fluorescence displacement; STD-NMR and ligand-observed 1H-NMR. Format: binding.

The target of experiment [2] is T1, FABP4. As to the kind of experiment: fluorescent probe, emission shift on binding to FABP4.
The target of experiment [3] is T1, FABP4. As to the kind of experiment: fluorescence displacement; STD-NMR (weak signal) and ligand-observed 1H-NMR. The experiment is classed as binding.

Molecules are shown by their SMILES.

In the case of `OCc1ccc(O[C@@H]2O[C@H](CO)[C@@H](O)[C@H](O)[C@H]2O)cc1` [GAS, gastrodin], the IC50 (as a rule, the point on the concentration scale where inhibition reaches its midpoint) in experiment [1] is 29.8 µM.
Take `O=S(=O)(O)c1cccc2cccc(Nc3ccccc3)c12` [1,8-ANS, 8-anilino-1-naphthalenesulfonic acid]: the “fluorescent probe, emission shift on binding to FABP4” value in experiment [2] is given as “When ANS binds to FABP4, its maximum emission light will be blue-shifted”.
As to `OCc1ccc(O)cc1` [4-HBA, 4-hydroxybenzyl alcohol], the IC50 in experiment [3] is 50.5 µM.
